Results: PubChem BioAssay AID2060498 (Molecular Pharmacology Branch, DTP, NCI, 2025)

Test system: 171881-019-R-J1-PDC tumor spheroids, viability
Assay: Anticancer human tumor 171881-019-R-J1-PDC patient-derived invasive breast carcinoma cell line growth inhibition [GQUAD]
Conditions: spheroids with HUVEC and MSC; for IC50: curve of first compound; for viability, T/C: stronger effect = lower value
In short: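 Multi-cell-type spheroids of tumor cells with HUVEC and mesenchymal stem cells, treated with drug combinations. Concentrations descend in half-log steps from near clinical Cmax, or from 10 microM where Cmax is unknown; viability read-out.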

[1] = second compound 0.0316 µM, first compound 0.0316 µM
[2] = second compound 0.0316 µM, first compound 0.1 µM
[3] = second compound 0.0316 µM, first compound 0.316 µM
[4] = second compound 0.0316 µM, first compound 1 µM
[5] = second compound 0.0316 µM, first compound 3.16 µM
[6] = second compound 0.0316 µM, first compound 10 µM
[7] = second compound 0.1 µM, first compound 0.0316 µM
[8] = second compound 0.1 µM, first compound 0.1 µM
[9] = second compound 0.1 µM, first compound 0.316 µM
[10] = second compound 0.1 µM, first compound 1 µM
[11] = second compound 0.1 µM, first compound 3.16 µM
[12] = second compound 0.1 µM, first compound 10 µM
[13] = second compound 0.316 µM, first compound 0.0316 µM
[14] = second compound 0.316 µM, first compound 0.1 µM
[15] = second compound 0.316 µM, first compound 0.316 µM
[16] = second compound 0.316 µM, first compound 1 µM
[17] = second compound 0.316 µM, first compound 3.16 µM
[18] = second compound 0.316 µM, first compound 10 µM
[19] = second compound 1 µM, first compound 0.0316 µM
[20] = second compound 1 µM, first compound 0.1 µM
[21] = second compound 1 µM, first compound 0.316 µM
[22] = second compound 1 µM, first compound 1 µM
[23] = second compound 1 µM, first compound 3.16 µM
[24] = second compound 1 µM, first compound 10 µM
[25] = second compound 3.16 µM, first compound 0.0316 µM
[26] = second compound 3.16 µM, first compound 0.1 µM
[27] = second compound 3.16 µM, first compound 0.316 µM
[28] = second compound 3.16 µM, first compound 1 µM
[29] = second compound 3.16 µM, first compound 3.16 µM
[30] = second compound 3.16 µM, first compound 10 µM
[31] = second compound 10 µM, first compound 0.0316 µM
[32] = second compound 10 µM, first compound 0.1 µM
[33] = second compound 10 µM, first compound 0.316 µM
[34] = second compound 10 µM, first compound 1 µM
[35] = second compound 10 µM, first compound 3.16 µM
[36] = second compound 10 µM, first compound 10 µM
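Note: spheroids exposed to compounds for 7 days.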
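Throughout, for viability, T/C: 100% = DMSO vehicle control viability.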

CC(C)n1c(=O)n(C)c2cnc3cc(F)c(-c4ccc(OCCCN5CCCCC5)nc4)cc3c21 + Cc1cnc(CNC(=O)c2c(=O)c3ccc(N4CCCN(C)CC4)nc3n3c2sc2ccccc23)cn1
IC50 (second compound 0.0316 µM): 1020 nM
IC50 (second compound 0.1 µM): 1720 nM
IC50 (second compound 0.316 µM): 1860 nM
IC50 (second compound 1 µM): 3420 nM
IC50 (second compound 3.16 µM): 3710 nM
IC50 (second compound 10 µM): 3200 nM
viability, T/C [1]: 63.7%
viability, T/C [2]: 56.6%
viability, T/C [3]: 59.6%
viability, T/C [4]: 48.2%
viability, T/C [5]: 39.1%
viability, T/C [6]: 16.1%
viability, T/C [7]: 62.4%
viability, T/C [8]: 62.2%
viability, T/C [9]: 58.6%
viability, T/C [10]: 55.9%
viability, T/C [11]: 43.8%
viability, T/C [12]: 17.4%
viability, T/C [13]: 66.6%
viability, T/C [14]: 65%
viability, T/C [15]: 60.5%
viability, T/C [16]: 58.9%
viability, T/C [17]: 43.3%
viability, T/C [18]: 20.8%
viability, T/C [19]: 66.7%
viability, T/C [20]: 63.5%
viability, T/C [21]: 66.5%
viability, T/C [22]: 57.7%
viability, T/C [23]: 53.2%
viability, T/C [24]: 25.4%
viability, T/C [25]: 62.1%
viability, T/C [26]: 63%
viability, T/C [27]: 66.5%
viability, T/C [28]: 60.7%
viability, T/C [29]: 53.1%
viability, T/C [30]: 28.2%
viability, T/C [31]: 61.8%
viability, T/C [32]: 64.2%
viability, T/C [33]: 61.7%
viability, T/C [34]: 58.7%
viability, T/C [35]: 50.4%
viability, T/C [36]: 25.3%

COc1ncnc(C2CC2)c1-c1ncc2cnn(Cc3ccc(-c4nc(C(F)(F)F)cn4C(C)C)cc3)c2n1 + CN(C)c1ccc(Nc2c3ccc(NC(=O)CCN4CCCC4)cc3nc3cc(NC(=O)CCN4CCCC4)ccc23)cc1
IC50 (second compound 0.0316 µM): > 10000 nM
IC50 (second compound 0.1 µM): > 10000 nM
IC50 (second compound 0.316 µM): < 31.6 nM
IC50 (second compound 1 µM): < 31.6 nM
IC50 (second compound 3.16 µM): < 31.6 nM
IC50 (second compound 10 µM): < 31.6 nM
viability, T/C [1]: 86.7%
viability, T/C [2]: 100%
viability, T/C [3]: 101%
viability, T/C [4]: 104%
viability, T/C [5]: 92.8%
viability, T/C [6]: 86.3%
viability, T/C [7]: 97%
viability, T/C [8]: 93.3%
viability, T/C [9]: 90.3%
viability, T/C [10]: 88.9%
viability, T/C [11]: 80.3%
viability, T/C [12]: 67.1%
viability, T/C [13]: 39.9%
viability, T/C [14]: 37%
viability, T/C [15]: 35.6%
viability, T/C [16]: 28.8%
viability, T/C [17]: 24.3%
viability, T/C [18]: 11.6%
viability, T/C [19]: 3.06%
viability, T/C [20]: 1.98%
viability, T/C [21]: 2.28%
viability, T/C [22]: 1.99%
viability, T/C [23]: 1.79%
viability, T/C [24]: 1.02%
viability, T/C [25]: 0.27%
viability, T/C [26]: 0.25%
viability, T/C [27]: 0.36%
viability, T/C [28]: 0.22%
viability, T/C [29]: 0.34%
viability, T/C [30]: 0.18%
viability, T/C [31]: 0.13%
viability, T/C [32]: 0.32%
viability, T/C [33]: 0.16%
viability, T/C [34]: 0.41%
viability, T/C [35]: 0.41%
viability, T/C [36]: 0.19%

O=C(NO)c1cnc(N2CCN(S(=O)(=O)c3ccc4ccccc4c3)CC2)nc1 + Cc1[nH]c2ccc(F)cc2c1-c1nc2c3cccnc3c3ncccc3c2[nH]1
IC50 (second compound 0.0316 µM): 348 nM
IC50 (second compound 0.1 µM): 410 nM
IC50 (second compound 0.316 µM): 341 nM
IC50 (second compound 1 µM): 148 nM
IC50 (second compound 3.16 µM): < 31.6 nM
IC50 (second compound 10 µM): < 31.6 nM
viability, T/C [1]: 93.7%
viability, T/C [2]: 83.3%
viability, T/C [3]: 55%
viability, T/C [4]: 1.74%
viability, T/C [5]: 0.09%
viability, T/C [6]: 0.15%
viability, T/C [7]: 88.4%
viability, T/C [8]: 78.7%
viability, T/C [9]: 63.8%
viability, T/C [10]: 2.75%
viability, T/C [11]: 0.09%
viability, T/C [12]: 0.11%
viability, T/C [13]: 73.3%
viability, T/C [14]: 65.3%
viability, T/C [15]: 53.4%
viability, T/C [16]: 2.53%
viability, T/C [17]: 0.14%
viability, T/C [18]: 0.21%
viability, T/C [19]: 60.2%
viability, T/C [20]: 49.3%
viability, T/C [21]: 41.2%
viability, T/C [22]: 1.79%
viability, T/C [23]: 0.34%
viability, T/C [24]: 0.4%
viability, T/C [25]: 7.54%
viability, T/C [26]: 5.44%
viability, T/C [27]: 2.89%
viability, T/C [28]: 0.17%
viability, T/C [29]: 0.14%
viability, T/C [30]: 0.28%
viability, T/C [31]: 34.9%
viability, T/C [32]: 31.9%
viability, T/C [33]: 24.6%
viability, T/C [34]: 0.85%
viability, T/C [35]: 0.2%
viability, T/C [36]: 0.32%

CC1COCCN1c1cc(C2(S(C)(=N)=O)CC2)nc(-c2ccnc3[nH]ccc23)n1 (stereo not drawn) + Cc1cnc(CNC(=O)c2c(=O)c3ccc(N4CCCN(C)CC4)nc3n3c2sc2ccccc23)cn1
IC50 (second compound 0.0316 µM): 1040 nM
IC50 (second compound 0.1 µM): 1050 nM
IC50 (second compound 0.316 µM): 755 nM
IC50 (second compound 1 µM): 1120 nM
IC50 (second compound 3.16 µM): 1040 nM
IC50 (second compound 10 µM): 1110 nM
viability, T/C [1]: 93.8%
viability, T/C [2]: 82.8%
viability, T/C [3]: 90.7%
viability, T/C [4]: 50.8%
viability, T/C [5]: 15.5%
viability, T/C [6]: 9.59%
viability, T/C [7]: 87.5%
viability, T/C [8]: 87.8%
viability, T/C [9]: 74.1%
viability, T/C [10]: 53.9%
viability, T/C [11]: 18.7%
viability, T/C [12]: 10.7%
viability, T/C [13]: 74.9%
viability, T/C [14]: 80.5%
viability, T/C [15]: 63.5%
viability, T/C [16]: 45.7%
viability, T/C [17]: 21.7%
viability, T/C [18]: 11.2%
viability, T/C [19]: 67.6%
viability, T/C [20]: 61.5%
viability, T/C [21]: 68.7%
viability, T/C [22]: 50.3%
viability, T/C [23]: 28.7%
viability, T/C [24]: 13.6%
viability, T/C [25]: 61.9%
viability, T/C [26]: 56.9%
viability, T/C [27]: 58.7%
viability, T/C [28]: 50.3%
viability, T/C [29]: 35.1%
viability, T/C [30]: 17.1%
viability, T/C [31]: 57.5%
viability, T/C [32]: 64.1%
viability, T/C [33]: 57.2%
viability, T/C [34]: 51.9%
viability, T/C [35]: 33%
viability, T/C [36]: 16.2%
